From patent US20230257376A1, “ROCK INHIBITOR, AND PREPARATION METHOD THEREFOR AND USE THEREOF” (WUHAN LL SCIENCE AND TECHNOLOGY DEVELOPMENT CO., LTD., priority 2020, published 2023)

What was measured:
ROCK2 kinase = target: T1, ROCK2 kinase (Homo sapiens, UniProt O75116); experiment: In vitro evaluation of ROCK2 kinase activity (HTRF KinEASE-STK time-resolved fluorometric assay); format: biochemical; settings: ROCK2 kinase 0.4 ng/μL, ATP 6.739 μM
T1 construct: purchased Invitrogen PV3759
Description: ROCK2 activity screening. ROCK2 activity was detected using a 96-well (Cisbio) time-resolved fluorometric assay. The assay for ROCK2 was performed in the following assay buffer: 5 mM MgCl2 (Sigma), 1 mM DTT (Sigma) and 1× kinase buffer. The kinase buffer was used for dilution. 7.5 μL of ROCK2 kinase (Invitrogen, PV3759) was added to a 96-well microplate to reach a final concentration of 0.4 ng/μL, and then 0.25 μL of test compound (DMSO content: 1% (volume fraction)) was added. The mixture was incubated at room temperature for 0.5 h. To start the reaction, the kinase buffer was used to mix ATP (Aladdin) and the substrate STK-substrate 2-biotin. 7.5 μL of the mixed solution was added to the microplate to reach final concentrations of 6.739 μM and 1 μM. The resulting mixture was incubated at room temperature for 2 h. 5 mL of detection buffer was mixed with STK antibody-Cryptate, and then an appropriate volume of the mixture was mixed with an equal volume of streptavidin-XL665. 10 μL of the resulting mixture was added to the microplate to stop the reaction. After further incubation for about 1 h, the microplate was read on a Molecular Devices SpectraMax i3x multifunctional microplate reader. The kinase buffer, the STK-substrate 2-biotin, the detection buffer, the STK antibody-Cryptate, and the streptavidin-XL665 were all from HTRF KinEASE-STK kit (Cisbio, 1000 tests, 61GSTXLA).

ROCK1 kinase = target: T2, ROCK1 kinase (Homo sapiens, UniProt Q13464); experiment: In vitro evaluation of ROCK1 kinase selectivity (HTRF KinEASE-STK time-resolved fluorometric assay); format: biochemical; settings: ROCK1 kinase 0.4 ng/μL, ATP 3.53 μM
T2 construct: purchased Invitrogen
T2 sequence (Q13464 whole entry): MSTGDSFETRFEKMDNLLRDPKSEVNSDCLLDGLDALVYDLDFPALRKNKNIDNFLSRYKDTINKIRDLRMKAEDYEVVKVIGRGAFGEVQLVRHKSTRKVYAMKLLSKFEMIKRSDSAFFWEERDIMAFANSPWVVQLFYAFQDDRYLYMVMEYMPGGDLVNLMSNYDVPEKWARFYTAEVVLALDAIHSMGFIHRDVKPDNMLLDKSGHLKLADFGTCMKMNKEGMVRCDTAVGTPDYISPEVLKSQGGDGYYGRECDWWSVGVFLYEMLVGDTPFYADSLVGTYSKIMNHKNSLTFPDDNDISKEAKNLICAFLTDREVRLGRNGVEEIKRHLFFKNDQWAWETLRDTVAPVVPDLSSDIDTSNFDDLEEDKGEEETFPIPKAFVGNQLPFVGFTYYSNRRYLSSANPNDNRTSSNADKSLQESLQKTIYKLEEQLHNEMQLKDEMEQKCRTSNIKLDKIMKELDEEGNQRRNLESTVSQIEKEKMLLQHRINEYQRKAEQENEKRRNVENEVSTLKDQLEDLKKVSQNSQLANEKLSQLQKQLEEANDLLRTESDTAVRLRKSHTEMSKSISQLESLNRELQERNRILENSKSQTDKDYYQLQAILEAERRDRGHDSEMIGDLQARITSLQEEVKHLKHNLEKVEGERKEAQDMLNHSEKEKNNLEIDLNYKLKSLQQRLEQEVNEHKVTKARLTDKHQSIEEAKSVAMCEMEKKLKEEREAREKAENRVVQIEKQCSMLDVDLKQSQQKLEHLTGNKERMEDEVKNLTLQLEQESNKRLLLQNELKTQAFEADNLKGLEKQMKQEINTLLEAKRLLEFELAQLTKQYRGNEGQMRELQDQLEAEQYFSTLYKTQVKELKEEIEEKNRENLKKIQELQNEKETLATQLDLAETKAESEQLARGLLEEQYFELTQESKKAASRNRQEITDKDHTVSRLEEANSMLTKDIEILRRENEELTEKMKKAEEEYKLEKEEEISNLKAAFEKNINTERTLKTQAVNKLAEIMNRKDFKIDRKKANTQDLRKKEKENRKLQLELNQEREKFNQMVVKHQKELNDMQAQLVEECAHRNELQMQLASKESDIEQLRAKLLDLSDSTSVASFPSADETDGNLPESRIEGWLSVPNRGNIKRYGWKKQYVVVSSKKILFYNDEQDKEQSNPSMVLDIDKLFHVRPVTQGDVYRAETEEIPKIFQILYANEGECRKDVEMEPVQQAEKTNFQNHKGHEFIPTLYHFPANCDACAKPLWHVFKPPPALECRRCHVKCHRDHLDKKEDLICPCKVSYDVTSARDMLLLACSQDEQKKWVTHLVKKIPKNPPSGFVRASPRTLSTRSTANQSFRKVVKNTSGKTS
Description: ROCK1 activity was detected using a 96-well (Cisbio) time-resolved fluorometric assay. The assay for ROCK1 was performed in the following assay buffer: 5 mM MgCl2 (Sigma), 1 mM DTT (Sigma) and 1× kinase buffer. The kinase buffer was used for dilution. 7.5 μL of ROCK1 kinase (Invitrogen) was added to a 96-well microplate to reach a final concentration of 0.4 ng/μL, and then 0.25 μL of test compound (DMSO content: 1%) was added. The mixture was incubated at room temperature for 0.5 h. To start the reaction, the kinase buffer was also used to mix ATP (Aladdin) and the substrate STK-substrate 2-biotin. 7.5 μL of the mixed solution was added to the microplate to reach final concentrations of 3.53 μM and 1 μM. The resulting mixture was incubated at room temperature for 2 h. 5 mL of detection buffer was mixed with STK antibody-Cryptate, and then an appropriate volume of the mixture was mixed with an equal volume of streptavidin-XL665. 10 μL of the resulting mixture was added to stop the reaction. After further incubation for about 1 h, the microplate was read on a Molecular Devices SpectraMax i3x multifunctional microplate reader. The kinase buffer, the STK-substrate 2-biotin, the detection buffer, the STK antibody-Cryptate, and the streptavidin-XL665 were all from HTRF KinEASE-STK kit (Cisbio, 1000 tests, 61GSTXLA).

T1 sequence (O75116 whole entry): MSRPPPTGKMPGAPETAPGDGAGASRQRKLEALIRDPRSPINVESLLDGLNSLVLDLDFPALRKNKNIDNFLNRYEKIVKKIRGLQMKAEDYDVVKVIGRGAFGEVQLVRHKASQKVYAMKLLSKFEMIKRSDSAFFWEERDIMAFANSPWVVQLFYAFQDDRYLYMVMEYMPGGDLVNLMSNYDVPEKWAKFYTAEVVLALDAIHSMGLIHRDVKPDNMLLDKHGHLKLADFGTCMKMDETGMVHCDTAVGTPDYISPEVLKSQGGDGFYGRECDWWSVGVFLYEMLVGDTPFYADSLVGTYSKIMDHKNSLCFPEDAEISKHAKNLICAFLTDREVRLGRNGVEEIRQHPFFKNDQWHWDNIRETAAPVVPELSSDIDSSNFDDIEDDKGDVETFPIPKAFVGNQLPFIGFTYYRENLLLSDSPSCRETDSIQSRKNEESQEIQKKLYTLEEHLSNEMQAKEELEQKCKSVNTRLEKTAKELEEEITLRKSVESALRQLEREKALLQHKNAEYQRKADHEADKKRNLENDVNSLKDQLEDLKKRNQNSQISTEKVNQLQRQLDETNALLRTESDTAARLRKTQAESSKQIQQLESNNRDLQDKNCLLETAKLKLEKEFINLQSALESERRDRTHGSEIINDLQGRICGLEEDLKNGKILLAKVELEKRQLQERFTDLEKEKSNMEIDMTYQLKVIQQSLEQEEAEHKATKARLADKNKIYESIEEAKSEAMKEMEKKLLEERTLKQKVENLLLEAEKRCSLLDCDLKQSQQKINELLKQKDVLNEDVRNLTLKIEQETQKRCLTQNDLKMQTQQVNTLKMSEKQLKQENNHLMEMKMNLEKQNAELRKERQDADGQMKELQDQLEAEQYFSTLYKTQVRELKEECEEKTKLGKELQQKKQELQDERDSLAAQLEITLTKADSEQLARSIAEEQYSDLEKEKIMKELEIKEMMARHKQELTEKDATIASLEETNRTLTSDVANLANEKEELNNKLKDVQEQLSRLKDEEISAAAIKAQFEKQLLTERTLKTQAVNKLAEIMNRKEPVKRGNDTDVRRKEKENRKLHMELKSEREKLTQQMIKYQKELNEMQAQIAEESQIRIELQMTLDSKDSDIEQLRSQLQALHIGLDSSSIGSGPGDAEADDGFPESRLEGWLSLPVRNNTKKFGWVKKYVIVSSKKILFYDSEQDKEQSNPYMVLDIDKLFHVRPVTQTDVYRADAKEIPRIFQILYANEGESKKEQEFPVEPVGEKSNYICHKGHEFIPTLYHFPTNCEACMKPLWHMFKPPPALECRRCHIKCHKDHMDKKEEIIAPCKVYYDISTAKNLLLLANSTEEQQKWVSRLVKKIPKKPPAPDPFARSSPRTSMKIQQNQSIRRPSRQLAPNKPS

Row | SMILES | IC50 (ROCK2 kinase) | IC50 (ROCK1 kinase)
1 | Cn1c(C(=O)O)cc2c1CN(c1nccc(Nc3ccc(-c4cn[nH]c4)cc3)n1)CC2 [Compound L001, 6-(4-((4-(1H-pyrazol-4-yl)phenyl)amino)pyrimidin-2-yl)-1-methyl-4,5,6,7-tetrahydro-1H-pyrrolo[2,3-c]pyridine-2-carboxylic Acid] | > 4500 nM | 
2 | O=C(O)c1cn2c(n1)CN(c1nccc(Nc3ccc(-c4cn[nH]c4)cc3)n1)CC2 [Compound L002, 7-(4-((4-(1H-pyrazol-4-yl)phenyl)amino)pyrimidin-2-yl)-5,6,7,8-tetrahydroimidazo[1,2-a]pyrazine-2-carboxylic Acid] | > 4500 nM | 
3 | O=C(c1cc2n(n1)CCN(c1nccc(Nc3ccc(-c4cn[nH]c4)cc3)n1)C2)N1CC(F)(F)C1 [Compound L003, (5-(4-((4-(1H-pyrazol-4-yl)phenyl)amino)pyrimidin-2-yl)-4,5,6,7-tetrahydropyrazolo[1,5-a]pyrazin-2-yl)(3,3-difluoroazetidin-1-yl)methanone] | > 4500 nM | 
4 | Cn1c(C(=O)NC2CC(F)(F)C2)cc2c1CN(c1nccc(Nc3ccc(-c4cn[nH]c4)cc3)n1)CC2 [Compound L004, 6-(4-((4-(1H-pyrazol-4-yl)phenyl)amino)pyrimidin-2-yl)-N-(3,3-difluorocyclobutyl)-1-methyl-4,5,6,7-tetrahydro-1H-pyrrolo[2,3-c]pyridine-2-carboxamide] | 50 to 500 nM | 500 to 4500 nM
5 | Cn1c(C(=O)N2CC(F)(F)C2)cc2c1CN(c1nccc(Nc3ccc4[nH]ncc4c3)n1)CC2 [Compound L006, (6-(4-((1H-indazol-5-yl)amino)pyrimidin-2-yl)-1-methyl-4,5,6,7-tetrahydro-1H-pyrrol[2,3-c]pyridin-2-yl)(3,3-difluoroazetidin-1-yl)methanone] | 50 to 500 nM | 500 to 4500 nM
6 | Cn1c(C(=O)N2CC(F)(F)C2)cc2c1CN(c1nccc(Nc3ccc(Oc4ncccc4C(N)=O)c(F)c3)n1)CC2 [Compound L007, 2-(4-((2-(2-(3,3-difluoroazetidin-1-carbonyl)-1-methyl-1,4,5,7-tetrahydro-6H-pyrrolo[2,3-c]pyridin-6-yl)pyrimidin-4-yl)amino)-2-fluorophenoxy)nicotinamide] | 500 to 4500 nM | 
7 | O=C(NC1CC(F)(F)C1)c1cn2c(n1)CN(c1nccc(Nc3ccc(-c4cn[nH]c4)cc3)n1)CC2 [Compound L008, 7-(4-((4-(1H-pyrazol-4-yl)phenyl)amino)pyrimidin-2-yl)-N-(3,3-difluorocyclobutyl)-5,6,7,8-tetrahydroimidazo[1,2-a]pyrazine-2-carboxamide] | ≤ 50 nM | > 4500 nM
8 | CC(C)NC(=O)c1cc2c(n1C)CN(c1nccc(Nc3ccc(-c4cn[nH]c4)cc3)n1)CC2 [Compound L009, 6-(4-((4-(1H-pyrazol-4-yl)phenyl)amino)pyrimidin-2-yl)-N-isopropyl-1-methyl-4,5,6,7-tetrahydro-1H-pyrrolo[2,3-c]pyridine-2-carboxamide] | 500 to 4500 nM | 
9 | Cn1c(C(=O)N2CC(C#N)C2)cc2c1CN(c1nccc(Nc3ccc(-c4cn[nH]c4)cc3)n1)CC2 [Compound L010, 1-(6-(4-((4-(1H-pyrazol-4-yl)phenyl)amino)pyrimidin-2-yl)-1-methyl-4,5,6,7-tetrahydro-1H-pyrrolo[2,3-c]pyridin-2-carbonyl)azetidine-3-carbonitrile] | ≤ 50 nM | > 4500 nM
10 | O=C(c1ccc2nn(-c3nccc(Nc4ccc(-c5cn[nH]c5)cc4)n3)cc2c1)N1CC(F)(F)C1 [Compound L011, (2-(4-((4-(1H-pyrazol-4-yl)phenyl)amino)pyrimidin-2-yl)-2H-indazol-5-yl)(3,3-difluoroazetidin-1-yl)methanone] | 500 to 4500 nM | 
11 | Cn1c(C(=O)Nc2ccnnc2)cc2c1CN(c1nccc(Nc3ccc(-c4cn[nH]c4)cc3)n1)CC2 [Compound L012, 6-(4-((4-(1H-pyrazol-4-yl)phenyl)amino)pyrimidin-2-yl)-1-methyl-N-(pyridazin-4-yl)-4,5,6,7-tetrahydro-1H-pyrrolo[2,3-c]pyridine-2-carboxamide] | 50 to 500 nM | 50 to 500 nM
12 | O=C(O)c1cc2n(c1)CCN(c1nccc(Nc3ccc(-c4cn[nH]c4)cc3)n1)C2 [Compound L013, 2-(4-((4-(1H-pyrazol-4-yl)phenyl)amino)pyrimidin-2-yl)-1,2,3,4-tetrahydropyrrolo[1,2-a]pyrazine-7-carboxylic Acid] | > 4500 nM | 

Continued, values first:

Row | IC50 (ROCK2 kinase) | IC50 (ROCK1 kinase) | SMILES
13 | > 4500 nM |  | CN(C(=O)c1cc2c(n1C)CN(c1nccc(Nc3ccc(-c4cn[nH]c4)cc3)n1)CC2)C1CC(F)(F)C1 [Compound L014, 6-(4-((4-(1H-pyrazol-4-yl)phenyl)amino)pyrimidin-2-yl)-N-(3,3-difluorocyclobutyl)-N,1-dimethyl-4,5,6,7-tetrahydro-1H-pyrrolo[2,3-c]pyridine-2-carboxamide]
14 | 50 to 500 nM | > 4500 nM | O=C(c1cn2c(n1)CN(c1nccc(Nc3ccc(-c4cn[nH]c4)cc3)n1)CC2)N1CC(F)(F)C1 [Compound L015]
15 | ≤ 50 nM | > 4500 nM | Cn1c(C(=O)N2CC(F)(F)C2)cc2c1CN(c1nccc(Nc3ccc(-c4c[nH]nc4F)c(F)c3)n1)CC2 [Compound L016, (3,3-difluoroazetidin-1-yl)(6-(4-((3-fluoro-4-(3-fluoro-1H-pyrazol-4-yl)phenyl)amino)pyrimidin-2-yl)-1-methyl-4,5,6,7-tetrahydro-1H-pyrrolo[2,3-c]pyridin-2-yl)methanone]
16 | 50 to 500 nM | > 4500 nM | Cn1c(C(=O)N2CC(F)(F)C2)cc2c1C(C)(C)N(c1nccc(Nc3ccc(-c4cn[nH]c4)cc3)n1)CC2 [Compound L018]
17 | 50 to 500 nM | > 4500 nM | Cn1c(C(=O)N2CC(F)(F)C2)cc2c1CN(c1nccc(Nc3ccc(-c4cn[nH]c4)cc3)n1)CC2(C)C [Compound L020, (6-(4-((4-(1H-pyrazol-4-yl)phenyl)amino)pyrimidin-2-yl)-1,4,4-trimethyl-4,5,6,7-tetrahydro-1H-pyrrolo[2,3-c]pyridin-2-yl)(3,3-difluoroazetidin-1-yl)methanone]
18 | 50 to 500 nM | > 4500 nM | Cn1c(C(=O)NC2CCN(c3ccncc3Cl)CC2)cc2c1CN(c1nccc(Nc3ccc(-c4cn[nH]c4)cc3)n1)CC2 [Compound L021]
19 | 500 to 4500 nM |  | CN(C(=O)c1cn2c(n1)CN(c1nccc(Nc3ccc(-c4cn[nH]c4)cc3)n1)CC2)C1CC(F)(F)C1 [Compound L022]
20 | 50 to 500 nM | 500 to 4500 nM | Cn1c(C(=O)Nc2cnccc2F)cc2c1CN(c1nccc(Nc3ccc(-c4cn[nH]c4)cc3)n1)CC2 [Compound L023]
21 | ≤ 50 nM | 500 to 4500 nM | Cn1c(C(=O)N2C[C@@H](O)[C@@H](F)C2)cc2c1CN(c1nccc(Nc3ccc(-c4cn[nH]c4)cc3)n1)CC2 [Compound L024]
22 | > 4500 nM |  | O=C(c1cc2n(c1)CCN(c1nccc(Nc3ccc(-c4cn[nH]c4)cc3)n1)C2)N1CC(F)(F)C1 [Compound L025, (2-(4-((4-(1H-pyrazol-4-yl)phenyl)amino)pyrimidin-2-yl)-1,2,3,4-tetrahydropyrrolo[1,2-a]pyrazin-7-yl)(3,3-difluoroazetidin-1-yl)methanone]
23 | 500 to 4500 nM | > 4500 nM | O=C(c1ccc2c(c1)CN(c1nccc(Nc3ccc(-c4cn[nH]c4)cc3)n1)CC2)N1CC(F)(F)C1 [Compound L028, (2-(4-((4-(1H-pyrazol-4-yl)phenyl)amino)pyrimidin-2-yl)-1,2,3,4-tetrahydroisoquinolin-7-yl)(3,3-difluoroazetidin-1-yl)methanone]
24 | 500 to 4500 nM | > 4500 nM | O=C(c1ccc2c(c1)CCN(c1nccc(Nc3ccc(-c4cn[nH]c4)cc3)n1)C2)N1CC(F)(F)C1 [Compound L029]
25 | ≤ 50 nM | > 4500 nM | Cn1c(C(=O)N2CC(F)(F)C2)cc2c1CN(c1ncc(C#N)c(Nc3ccc(-c4cn[nH]c4)cc3)n1)CC2 [Compound L034, 4-((4-(1H-pyrazol-4-yl)phenyl)amino)-2-(2-(3,3-difluoroazetidin-1-carbonyl)-1-methyl-4,5-dihydro-1H-pyrrolo[2,3-c]pyridin-6(7H)-yl)pyrimidine-5-carbonitrile]
